# Assay results reported in US8748460B2, “Iminosugars and methods of treating togaviral diseases” (priority 2009, dated 2014).
# What was measured:
# [1] = test system: Venezuelan Equine Encephalitis (Togaviridae) TC-83 strain; type: cell-based, Venezuelan equine encephalitis virus; details: read-out: EC50, VEE virus inhibition
# [2] = test system: Rift Valley Fever Virus (Bunyavirus) MP12 strain; type: cell-based; details: read-out: EC50, RVFV MP12 virus inhibition
# [3] = test system: Chikungunya (Togaviridae) 181/25 strain; type: cell-based; details: read-out: EC50, Chikungunya virus inhibition
Compound,EC50 [1],EC50 [2],EC50 [3],toxicity at the highest concentration (Vero cells),toxicity to cells at the highest concentration (Vero cells)
"CCCCN1C[C@H](O)[C@@H](O)[C@H](O)[C@H]1CO [UV-1, N-Butyl deoxynojirimycin]",156 µM,,,,
"CCCCCCCCCN1C[C@H](O)[C@@H](O)[C@H](O)[C@H]1CO [UV-2, N-Nonyl dexoynojirimycin]",12 µM,58 µM,56 µM,toxic,toxic
"CCCOCCCCCCN1C[C@H](O)[C@@H](O)[C@H](O)[C@H]1CO [UV-3, N-(7-Oxadecyl)deoxynojirimycin]",,218 µM,,,
"[N-]=[N+]=Nc1ccc(NCCCCCCN2C[C@H](O)[C@@H](O)[C@H](O)[C@H]2CO)c([N+](=O)[O-])c1 [UV-5, N—(N-{4′-azido-2′-nitrophenyl}-6-aminohexyl)deoxynojirimycin]",2 µM,49 µM,22 µM,,
